We go through 7 compounds from ChEMBL document CHEMBL3232805, “Alkaloids from the roots of Stichoneuron caudatum and their acetylcholinesterase inhibitory activities” (J Nat Prod, 2014).

Structures are written as SMILES. Bounds are passed on as bounds.

The experiment concerns the target Acetylcholinesterase (Homo sapiens, UniProt P22303). In words: Inhibition of human AChE by spectrophotometry.

Acetylcholinesterase, sequence (P22303 whole entry): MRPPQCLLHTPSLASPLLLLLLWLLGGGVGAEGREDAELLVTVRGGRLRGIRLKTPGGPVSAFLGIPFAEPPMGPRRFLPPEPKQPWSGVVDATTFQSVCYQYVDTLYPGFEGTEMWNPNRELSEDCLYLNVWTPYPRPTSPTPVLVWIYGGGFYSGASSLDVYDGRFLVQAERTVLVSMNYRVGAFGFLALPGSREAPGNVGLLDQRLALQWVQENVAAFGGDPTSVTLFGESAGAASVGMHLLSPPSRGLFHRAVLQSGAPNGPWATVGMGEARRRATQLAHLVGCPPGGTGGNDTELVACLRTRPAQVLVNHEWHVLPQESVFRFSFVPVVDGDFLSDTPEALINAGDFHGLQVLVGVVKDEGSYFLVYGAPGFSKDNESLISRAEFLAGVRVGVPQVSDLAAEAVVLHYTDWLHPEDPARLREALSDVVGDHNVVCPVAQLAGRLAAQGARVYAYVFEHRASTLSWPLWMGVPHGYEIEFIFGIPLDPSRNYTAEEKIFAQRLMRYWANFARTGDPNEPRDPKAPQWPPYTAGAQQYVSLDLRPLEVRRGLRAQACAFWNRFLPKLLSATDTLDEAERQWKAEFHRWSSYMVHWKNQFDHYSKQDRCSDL

Regarding `CC[C@H]1[C@H]2OC(=O)[C@@](C)(O)[C@H]2[C@]23CC[C@@H]([C@@H]4C[C@H](C)C(=O)O4)N2CCCC[C@H]13`, the IC50 was greater than 100 µM.

The compound `CC[C@@H]1[C@H]2OC(=O)[C@@](C)(O)[C@H]2[C@]23CC[C@@H]([C@@H]4C[C@H](C)C(=O)O4)N2CCCC[C@H]13` yielded an IC50 of 68.8 µM.

For `CC[C@H]1[C@H]2OC(=O)[C@](C)(O)[C@H]2[C@]23CC[C@@H]([C@@H]4C[C@@H](C)C(=O)O4)N2CCCC[C@@H]13`, half-maximal inhibition (IC50) required 9.1 µM.

With `CC[C@H]1[C@H](C[C@H](C)C(=O)OC)O[C@]23CC[C@@H]([C@@H]4C[C@H](C)C(=O)O4)N2CCCC[C@]13O`, the IC50 was greater than 100 µM.

On to `CC[C@@H]1[C@H]2OC(=O)[C@](C)(O)[C@H]2[C@]23CC[C@@H]([C@@H]4C[C@@H](C)C(=O)O4)N2CCCC[C@@H]13`, for which the half-inhibitory concentration (IC50) is greater than 100 µM.

As for `CC[C@H]1[C@H](C[C@H](C)C(=O)OC)O[C@]23CC[C@@H]([C@@H]4C[C@H](C)C(=O)O4)N2CCCC[C@H]13`, the IC50 came out at 71.5 µM.

With `CC[C@H]1[C@@H]2OC(=O)[C@@](C)(O)[C@@H]2[C@@]23CC[C@@H]([C@@H]4C[C@H](C)C(=O)O4)N2CCCC[C@H]13`, the IC50 was 17.1 µM.

What is called IC50 is the concentration needed to halve the response being measured. Higher therefore signals lower potency.
